Test systems include CAKI-1 renal; PC-3 prostate; SK-MEL-2 melanoma; SF-268 CNS; T-47D breast; SNB-75 CNS; HCT-116 colon; COLO 205 colon; M14 melanoma; MDA-MB-231 breast; A498 renal.
Assay in all cases: DTP human tumour cell line panel, 48 h

“And” between values parts separate entries of the source, which are not always exact repeats. Identical values can stand only once.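 These data come from cells grown in 96-well plates and exposed to compound for 48 hours at five concentrations. Here, GI50 denotes the concentration required for 50% inhibition of growth. TGI: total growth inhibition.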

One may read the TGI as the concentration giving total growth inhibition. High values mean lower sensitivity of the cells, low ones greater sensitivity of the cells. On to `COc1ccc(N=C(C)C(C)=Nc2ccc(OC)cc2)cc1`, for which the TGI in the assay on CAKI-1 renal, in the assay on PC-3 prostate, with SK-MEL-2 melanoma, with SF-268 CNS, with T-47D breast and in the assay with SNB-75 CNS was greater than 100 µM throughout. The TGI is greater than 100 µM with HCT-116 colon; 37.1 µM with COLO 205 colon; greater than 100 µM in the assay on M14 melanoma; greater than 100 µM in the assay on MDA-MB-231 breast; greater than 100 µM in the assay on A498 renal.

Turning to `CC(C)(C)N=C1C(=O)C2(C)CCC1C2(C)C` (stereo unspecified), the total growth inhibition concentration (TGI) in the assay with CAKI-1 renal, with PC-3 prostate, with SK-MEL-2 melanoma, in the assay with SF-268 CNS, in the assay with T-47D breast and in the assay on HCT-116 colon was greater than 100 µM throughout. For the same compound, the concentration for total growth inhibition (TGI) with COLO 205 colon was greater than 100 µM; with M14 melanoma it was greater than 100 µM; in the assay with MDA-MB-231 breast, greater than 100 µM; in the assay on A498 renal, 41.2 µM.

As for `C[C@H](NC(=O)C(C)(Cc1ccc(O)cn1)NC(=O)c1ccccc1)c1ccccc1` (stereo partly specified), the TGI in the assay on CAKI-1 renal, in the assay on PC-3 prostate, in the assay on SK-MEL-2 melanoma, in the assay on SF-268 CNS, with T-47D breast and with HCT-116 colon was greater than 100 µM each time. The concentration for total growth inhibition (TGI) in the assay with COLO 205 colon, with M14 melanoma, in the assay with MDA-MB-231 breast and with A498 renal was greater than 100 µM each time.

Regarding `CC(C)=CCNc1ncnc2c1ncn2CCC(=O)O`, the total growth inhibition concentration (TGI) in the assay on PC-3 prostate, with SF-268 CNS, in the assay on T-47D breast, with SNB-75 CNS, in the assay on HCT-116 colon and in the assay with COLO 205 colon was greater than 100 µM each time. The TGI with M14 melanoma, with MDA-MB-231 breast and in the assay on A498 renal was greater than 100 µM in each case.

Take `O=Cc1c2c(cc3c1CC1(C3)Cc3cc4c(c(C=O)c3C1)CCC4)CCC2`: the TGI in the assay on PC-3 prostate is greater than 100 µM; with SK-MEL-2 melanoma it was 50.8 µM; in the assay on T-47D breast it was greater than 100 µM; in the assay with HCT-116 colon it was 33.7 µM; in the assay on COLO 205 colon, 57.4 µM; with M14 melanoma it was greater than 100 µM. For the same compound, the concentration for total growth inhibition (TGI) with MDA-MB-231 breast was determined as 70.1 µM; with A498 renal, 84.7 µM.

Take `COc1ccc(/C=C/C(=O)c2cc(CN(C)C)c(O)c(CN(C)C)c2)cc1`: the TGI is greater than 100 µM with CAKI-1 renal; 85.8 µM in the assay with PC-3 prostate; greater than 100 µM with SF-268 CNS; greater than 100 µM in the assay on T-47D breast; greater than 100 µM in the assay on SNB-75 CNS; greater than 100 µM in the assay on HCT-116 colon. The TGI with COLO 205 colon came to 32.5 µM; in the assay with MDA-MB-231 breast, 69.6 µM; in the assay with A498 renal, 60.3 µM.

Take `C=CC(C)(C)/C(=C\CO[Si](C(C)C)(C(C)C)C(C)C)C(=O)N(C)c1ccccc1I`: the total growth inhibition concentration (TGI) in the assay with CAKI-1 renal is 44 µM; in the assay with PC-3 prostate, 12.6 µM; with SF-268 CNS, 24.5 µM; in the assay on T-47D breast, 25.3 µM; in the assay on SNB-75 CNS, 31.7 µM; with HCT-116 colon, 17 µM. In addition, the total growth inhibition concentration (TGI) in the assay on COLO 205 colon turned out to be 31.5 µM; with M14 melanoma, 33.6 µM; in the assay with MDA-MB-231 breast it was 28.9 µM; with A498 renal, 46 µM.

Turning to `CN(C)Cc1cc(/C=C/C(=O)c2ccc(Br)cc2)cc(CN(C)C)c1O`, the TGI with CAKI-1 renal is 23.8 µM; with PC-3 prostate, greater than 100 µM; with SK-MEL-2 melanoma it was 90.5 µM; with SF-268 CNS, 33.4 µM; in the assay with T-47D breast, 35.4 µM; in the assay on SNB-75 CNS, 43.7 µM. Moreover, the TGI in the assay with HCT-116 colon is 29 µM; with COLO 205 colon it was 30.1 µM; in the assay on M14 melanoma it was greater than 100 µM; in the assay with MDA-MB-231 breast it was 40 µM; in the assay with A498 renal it was 27.7 µM.

With `CCOC(=O)c1cnc2n(c1=O)[C@H]1CCCC[C@@H]1N2`, the TGI in the assay with CAKI-1 renal, in the assay with PC-3 prostate, with SK-MEL-2 melanoma, with SF-268 CNS, in the assay with T-47D breast and with SNB-75 CNS was greater than 100 µM each time. Besides, the total growth inhibition concentration (TGI) with HCT-116 colon, in the assay with COLO 205 colon, in the assay with M14 melanoma, with MDA-MB-231 breast and in the assay on A498 renal was greater than 100 µM in each case.

As to `O=C(NC1=C(Cl)C(=O)c2ccccc2C1=O)C(=O)c1c(O)c2ccccc2oc1=O`, the TGI was 22.6 µM in the assay on CAKI-1 renal; greater than 27.1 µM in the assay with PC-3 prostate; 10.3 µM with SK-MEL-2 melanoma; 25.6 µM in the assay on SF-268 CNS; 23.5 µM with T-47D breast; 25 µM in the assay on SNB-75 CNS. Further, the TGI in the assay with HCT-116 colon amounted to 7.47 µM; in the assay on COLO 205 colon it was 17.9 µM; with M14 melanoma it was 4.4 µM; with MDA-MB-231 breast, 22.5 µM; with A498 renal, 33.9 µM.

As for `Cc1cc(NS(=O)(=O)c2ccc(Nc3c4ccccc4nc4c(C(=O)NC(CO)(CO)CO)cccc34)cc2)no1`, the TGI is greater than 100 µM in the assay on CAKI-1 renal; greater than 100 µM in the assay with PC-3 prostate; 48.5 µM with SK-MEL-2 melanoma; 60.6 µM with SF-268 CNS; greater than 100 µM with T-47D breast; 55.1 µM with SNB-75 CNS. Besides, the TGI with COLO 205 colon, in the assay on M14 melanoma, with MDA-MB-231 breast and with A498 renal was greater than 100 µM each time.

Consider `Oc1ccc(Nc2nc(Cl)c3[nH]cnc3n2)cc1`, for which the total growth inhibition concentration (TGI) with CAKI-1 renal was greater than 100 µM; in the assay with PC-3 prostate, greater than 100 µM; with SK-MEL-2 melanoma, 87.3 µM; in the assay with SF-268 CNS it was greater than 100 µM; in the assay on T-47D breast, greater than 100 µM; with SNB-75 CNS, greater than 100 µM. Besides, the TGI with HCT-116 colon, in the assay with COLO 205 colon, in the assay with M14 melanoma, with MDA-MB-231 breast and with A498 renal was greater than 100 µM throughout.

As to `C=CCN1C(=O)C[C@H](Cc2ccccc2)NC(=O)C[C@H](Cc2ccccc2)N(CC=C)C(=O)C[C@H](Cc2ccccc2)NC(=O)C[C@@H]1Cc1ccccc1`, the TGI in the assay with CAKI-1 renal was greater than 100 µM; in the assay with PC-3 prostate, greater than 100 µM; with SK-MEL-2 melanoma, greater than 100 µM; in the assay with SF-268 CNS it was greater than 100 µM; in the assay with T-47D breast, greater than 100 µM; in the assay on SNB-75 CNS, 50.1 µM. In addition, the concentration for total growth inhibition (TGI) with HCT-116 colon was greater than 100 µM; in the assay with COLO 205 colon it was 5.87 µM; with M14 melanoma it was greater than 100 µM; in the assay on MDA-MB-231 breast it was greater than 100 µM; with A498 renal, greater than 100 µM.

`CNCC(SC)c1ccc(O)c(O)c1` (stereo unspecified): the concentration for total growth inhibition (TGI) with CAKI-1 renal was 38 µM; in the assay with PC-3 prostate, greater than 100 µM; with SK-MEL-2 melanoma, greater than 100 µM; with SF-268 CNS, greater than 100 µM; in the assay with T-47D breast, 67 µM; in the assay on SNB-75 CNS it was greater than 100 µM. Also, the concentration for total growth inhibition (TGI) in the assay with HCT-116 colon is 43.7 µM; with COLO 205 colon it was 32.9 µM; in the assay with M14 melanoma, greater than 100 µM; in the assay on MDA-MB-231 breast, greater than 100 µM; in the assay on A498 renal, greater than 100 µM.

For orientation: GI50 means the concentration that inhibits growth by half. `CCN(CC)CC[n+]1ccc2c(C)c3[nH]c4ccccc4c3c(C)c2c1`: the GI50 in the assay on CAKI-1 renal was 8.97 µM; in the assay on SK-MEL-2 melanoma it was 1.4 µM; in the assay on SNB-75 CNS it was 0.148 µM; in the assay on COLO 205 colon it was 0.131 µM and 0.297 µM and 0.412 µM. Also, the total growth inhibition concentration (TGI) in the assay with CAKI-1 renal is 10.3 µM and > 38.3 µM and 7.08 µM; in the assay with PC-3 prostate, 3.18 µM; in the assay with SK-MEL-2 melanoma it was 1.56 µM and 3.43 µM and 1.29 µM; in the assay on SF-268 CNS, 1.07 µM and 1.28 µM and 1.64 µM; in the assay with T-47D breast it was 1.19 µM; in the assay on SNB-75 CNS it was 1.14 µM and 0.847 µM and 1.23 µM. The total growth inhibition concentration (TGI) in the assay with COLO 205 colon is 0.525 µM and 0.878 µM and 1.55 µM; with M14 melanoma, 3.28 µM; in the assay on MDA-MB-231 breast, 2.93 µM; in the assay with A498 renal, 25.2 µM and 28.8 µM and 17.9 µM.

Consider `CCOC(=O)c1c(SC(=O)c2ccc(Cl)cc2)n(-c2ccccc2)c(=S)n(-c2ccccc2)c1=O`, for which the concentration for total growth inhibition (TGI) with CAKI-1 renal, in the assay on PC-3 prostate, in the assay on SF-268 CNS, with T-47D breast, with SNB-75 CNS and in the assay on HCT-116 colon was greater than 100 µM throughout. Besides, the concentration for total growth inhibition (TGI) with COLO 205 colon, with M14 melanoma, with MDA-MB-231 breast and in the assay on A498 renal was greater than 100 µM throughout.

With `COC1OC(C)/C(=N/O)C2OC(C)(C)OC12` (stereo unspecified), the TGI in the assay on CAKI-1 renal, in the assay with PC-3 prostate, in the assay on SF-268 CNS, with T-47D breast, in the assay with HCT-116 colon and in the assay on COLO 205 colon was greater than 100 µM in each case. Further, the total growth inhibition concentration (TGI) in the assay with M14 melanoma, in the assay with MDA-MB-231 breast and with A498 renal was greater than 100 µM each time.

Take `O=C(O)c1c(CC(Cc2ccccc2)C(=O)O)ccc2c1CCC2` (stereo unspecified): the TGI in the assay on CAKI-1 renal, with PC-3 prostate, in the assay with SK-MEL-2 melanoma, in the assay on SF-268 CNS, in the assay on T-47D breast and in the assay with SNB-75 CNS was greater than 100 µM throughout. Further, the concentration for total growth inhibition (TGI) in the assay on HCT-116 colon, with COLO 205 colon, in the assay on MDA-MB-231 breast and in the assay with A498 renal was greater than 100 µM each time.

With `Clc1cc(Cl)nc(Nc2ccc3c(c2)CCC3)n1`, the TGI in the assay on CAKI-1 renal is 75.7 µM; in the assay with PC-3 prostate, greater than 100 µM; in the assay on SK-MEL-2 melanoma it was greater than 100 µM; in the assay on SF-268 CNS, greater than 100 µM; in the assay on T-47D breast, greater than 100 µM; with HCT-116 colon it was greater than 100 µM. Moreover, the concentration for total growth inhibition (TGI) in the assay on COLO 205 colon is 46.9 µM; in the assay on M14 melanoma, greater than 100 µM; in the assay on MDA-MB-231 breast it was greater than 100 µM; in the assay on A498 renal, greater than 100 µM.

The record behind these values is PubChem BioAssay (NCI).
